What was measured:
[1] = tested on: TSLP; assay: Systemic TSLP induction by topical vitamin D3 analogs (ELISA); type: in vivo, mice; details: for serum TSLP levels: topical, ear skin bilaterally, 2 nmol/ear in ethanol, after 5 days of treatment
[2] = Toxicity (morbidity and mortality) of topical vitamin D3 analogs in mice; type: in vivo; details: for dose at which morbidity and mortality of mice was not observed: topical; for toxicity at 2 nmol/ear: topical 2 nmol/ear
Description: (§1) VDR stimulation of keratinocytes led to TSLP production, which in certain embodiments caused increase in Treg numbers. The effects of two vitamin D3 analogs (22-Oxacalcitriol, also known as 22-OXA, and EB1089) on TSLP production and Treg numbers were evaluated. Similarly to MC903, 22-OXA and EB1089 were applied to the ear skin bilaterally at a dose of 2 nmol/ear dissolved in ethanol. After 5 days of treatment, the mice were bled and serum TSLP levels were measured. […] To avoid the toxic effect, the dose of 22-OXA and EB1089 was lowered to a point where morbidity and mortality of mice was not observed (0.4 nmol/ear for 22-OXA; 0.04 nmol/ear for EB1089). At this dose, no increase in TSLP level was detected in 22-OXA-treated mice (FIG. 9B).

[3] = tested on: Tregs; assay: Treg % in blood and spleen after topical vitamin D3 analogs; type: in vivo, mice; details: topical 0.04 nmol/ear
Text: FIGS. 10A-10B comprise bar graphs illustrating data derived from topically treating mice with EtOH or EB1089 (0.04 nmol/ear) for 5 days and bleeding them on Day 7. Treg % from (FIG. 10A) blood and (FIG. 10B) spleen are illustrated. N=3 mice/group. *p<0.01 by Student t-test.
as §1

C=C1/C(=C\C=C2/CCC[C@]3(C)[C@@H]([C@H](C)OCCC(C)(C)O)CC[C@@H]23)C[C@@H](O)C[C@@H]1O [22-OXA, 22-oxa-1α,25(OH)2D3]
TSLP level at 0.4 nmol/ear ([1]; topical 0.4 nmol/ear): no increase
serum TSLP levels [1]: induced detectable amounts of TSLP
dose at which morbidity and mortality of mice was not observed [2]: 0.4 nmol/ear
toxicity at 2 nmol/ear [2]: toxicity-related morbidity and mortality

C=C1/C(=C\C=C2/CCC[C@]3(C)[C@@H]([C@H](C)/C=C/C=C/C(O)(CC)CC)CC[C@@H]23)C[C@@H](O)C[C@@H]1O [EB1089, 1(S),3(R)-dihydroxy-20(R)-(5′-ethyl-5′-hydroxy-hepta-1′(E),3′(E)-dien-1′-yl)-9,10-secopregna-5(Z),7(E),10(19)-triene]
blood Tregs [3]: only a subtle increase
splenic Treg numbers [3]: did not have any effect
TSLP level at 0.04 nmol/ear ([1]; topical 0.04 nmol/ear): some TSLP was detectable
serum TSLP levels [1]: induced detectable amounts of TSLP
dose at which morbidity and mortality of mice was not observed [2]: 0.04 nmol/ear
toxicity at 2 nmol/ear [2]: toxicity-related morbidity and mortality

Reference: US11752159B2, “Compositions and methods for suppressing or reducing systemic immune response in a subject” (THE TRUSTEES OF THE UNIVERSITY OF PENNSYLVANIA, priority 2015, dated 2023)
